The results in this text go back to patent publication US20260007756A1, “COMPOUND AND USE THEREOF” (COHERENT BIOPHARMA (SUZHOU) LIMITED, priority 2022, published 2026).

For data set [1], the system named is human liver cancer HepG2 cell subcutaneous xenograft tumor. Description: Pharmacodynamic assessment, HepG2 xenograft model. The format is in vivo, BALB/c nude mouse. Conditions: 4 mg/kg iv biw×3, day 36 after grouping. How it is done: Objective: Pre-clinical assessment of the efficacy of CR202 series of compounds in BALB/c nude mouse model with human liver cancer HepG2 cell subcutaneous xenograft tumor with no FOLR1 or PSMA receptor expression.
Procedures: 0.1 mL (10×10^6 cells) of HepG2 cells was subcutaneously inoculated on the right back of each mouse, and the mice were randomized into a modeling control group and treatment groups after the mean tumor volume was approximately 100-150 mm^3. The treatment was started on the first day of grouping. Before the start of administration, the animals were weighed, and the tumor volume was measured with a vernier caliper. After the grafting of tumor cells, the routine monitoring included the effect on tumor growth and the effect of treatment on the normal behavior of the animals, specifically the activity, food and water intake, weight gain or loss, the eyes, the hair, and other abnormal conditions. After the administration was started, the body weight and tumor size of the mice were measured periodically. The calculation formula for tumor volume: Tumor volume V (mm^3)=1/2×(a×b^2) (where a denotes the long diameter and b notes the short diameter). The calculation formula for the tumor growth inhibition, TGI (%), is TGI %=(1−T/C)×100% (T and C are the mean tumor volume of the treatment group and control group, respectively, at a particular time point).

The test system of data set [2] is HT-29 cell subcutaneous xenograft tumor. Description: Pharmacodynamic assessment, HT-29 xenograft model. It is filed as in vivo, BALB/c nude mouse. An excerpt:
Objective: Pre-clinical assessment of the efficacy of CR202 series of compounds for treating BALB/c nude mouse model with HT-29 cell subcutaneous xenograft tumor.
(§1) Procedures: HT-29 cells were subcutaneously grafted at the right back of the mice, and the mice were randomized when the mean tumor volume reached 100-150 mm^3. After the administration, the routine monitoring included the effect on tumor growth and the effect of treatment on the normal behavior of the animals, specifically the activity, food and water intake, weight gain or loss, the eyes, the hair, and other abnormal conditions. Clinical symptoms observed during the study were recorded in the raw data. After the administration was started, the body weight and tumor size of the mice were measured periodically. The tumor volume was calculated using the following formula: V=1/2×(a×b^2), where a and b denote the long diameter and short diameter of the tumor, respectively.

The nature of data set [3]: Single-dose PK assessment, tumor concentration in HT-29 xenograft mice. The following applies: 2 mg/kg CR20274 single tail vein injection, 5 min. The format is in vivo, BALB/c nude male mouse.
A further data set can be described thus: Solubility study in PBS. The format is physicochemical. Conditions: aqueous buffer, thermodynamic from solid; PBS (pH 7.2 to 7.4); read-out: Solubility, concentration. How it is done:
The mixture was vortexed for 2 min until the solid was dissolved. The solubility was calculated as: C=m/V, C: concentration, m: sample weight, V: PBS total volume.

Data set [4] deals with human breast cancer MDA-MB-231 cell subcutaneous xenograft. In words: Pharmacodynamic assessment, MDA-MB-231 xenograft model. The following applies: 4 mg/kg iv biw×3. The format is in vivo. An excerpt: Objective: Pre-clinical pharmacodynamic study of test compounds CR20274, CR20282, and CR20285 in BALB/c nude mouse model with human breast cancer MDA-MB-231 cell subcutaneous xenograft.
Procedures: MDA-MB-231 tumor mass was grafted subcutaneously at the right axilla of the mice, and the mice were randomized after the mean tumor volume was 200 mm^3. After administration, the animals were monitored daily for health conditions and death, and the routine examinations included observation of the effect on tumor growth and the effect of the treatment on the daily performance of the animals, such as behavioral activities, food and water intake, weight changes (measured once every other day), appearance, or other abnormal conditions. Whether the tumor growth was inhibited or delayed or the tumor was cured was also observed. The tumor volume was measured periodically. The tumor volume was calculated using the following formula: V=1/2×(a×b^2), where a and b denote the long diameter and short diameter of the tumor, respectively. The calculation formula for the tumor growth inhibition, TGI (%), is TGI %=(1−T/C)×100% (T and C are the mean tumor volume of the treatment group and control group, respectively, at a particular time point).

Data set [5] concerns human prostate cancer C4-2 cell subcutaneous xenograft tumor. Description: Pharmacodynamic assessment, C4-2 xenograft model. It is filed as in vivo, NCG mouse. Conditions: 4 mg/kg i.v biw×3, day 23 after grouping.
Excerpt: Objective: Pre-clinical assessment of the efficacy of compounds for treating NCG mouse model with C4-2 cell subcutaneous xenograft tumor (overexpressing PSMA).
as §1, with “C4-2” for “HT-29”

The nature of data set [6]: Single-dose PK assessment, tumor concentration in HT-29 xenograft mice. The format is in vivo, BALB/c nude male mouse. The following applies: 2 mg/kg CR20274 single tail vein injection. How it is done:
Objective: Single-dose PK assessment of compounds CR20214 and CR20274 in BALB/c nude male mouse model with human colorectal cancer HT-29 cell subcutaneous xenograft.
Procedures: HT-29 cells were grafted subcutaneously on the right back of the mice (purchased from GemPharmatech Co., Ltd., weighing 20-25 g, male, aged 45-60 days), and the mice were randomized when the mean tumor volume reached about 300 mm^3. 6.25 mg/kg of CR20214 and 2 mg/kg of CR20274 were given to the HT-29 tumor-bearing mice in a single dose by tail vein injection. The tumors were taken at […], 0.25, 0.5, 1, 2, 4, 8, 24, 48 and 72 h post-dose, ground, and homogenized. The homogenate was extracted, and after centrifugation, the supernatants were injected into a triple quadrupole tandem mass spectrometer to determine the CR20274 content in the tumors.

The mark [7] stands for this setting: 2 mg/kg i.v BIW×3, day 25 after grouping.
Setting [8] is: 4 mg/kg i.v BIW×3, day 25 after grouping.

Regarding `CC[C@@H]1C(=O)N(C)c2cnc(Nc3ccc(-c4cn([C@H]5CC[C@@H](NCCOCCC#Cc6cccc7c6CN(C6CCC(=O)NC6=O)C7=O)CC5)nn4)cc3OC)nc2N1C1CCCC1` (some centres unmarked) [CR20274], the Mean tumor volume in data set [1] amounted to 1329.84 mm^3; in data set [2] (setting [7]) it was 1575.84 mm^3; in data set [2] (setting [8]), 1316.64 mm^3; in data set [5] it was 2198.07 mm^3. Moreover, the TGI in data set [1] is recorded as 22.99%; in data set [2] (setting [7]), 24.23%; in data set [2] (setting [8]), 36.69%; in data set [5] it was −25.70%. In addition, the “Concentration of CR20274 in tumors (C2)” value in data set [3] came out at 0.227 nmol/g; in data set [6] (0.25 h), 0.206 nmol/g; in data set [6] (0.5 h) it was 0.222 nmol/g; in data set [6] (1 h) it was 0.191 nmol/g; in data set [6] (2 h), 0.180 nmol/g; in data set [6] (4 h) it was 0.164 nmol/g. The “Concentration of CR20274 in tumors (C2)” value in data set [6] (8 h) was 0.154 nmol/g; in data set [6] (24 h), 0.104 nmol/g; in data set [6] (48 h), 0.064 nmol/g; in data set [6] (72 h), 0.044 nmol/g. In addition, in “Solubility study in PBS”, the solubility at 2 min was under 900 µg/mL. Further, in data set [4], the “Anti-tumor effect” value was “no anti-tumor effect”.
